Assay [1] deals with Escherichia coli ATCC 25922. As to the kind of experiment: Minimal Inhibitory Concentration (MIC) assay, Escherichia coli ATCC 25922. Type of assay: cell-based. To be noted: ATCC25922, 20 h, read-out: MIC Escherichia coli ATCC25922. The method, then:
(§1) The antibacterial activity of the compounds of the present invention was evaluated against the commonly used quality control strain Escherichia coli ATCC 25922 and the rifampin-resistant mutant strain Klebsiella pneumonia ATCC 43816. Both were originally derived from human clinical samples and are available from ATCC (American Type Culture Collection). The in vitro potency of compounds to inhibit Escherichia coli (ATCC 25922) and Klebsiella pneumonia (ATCC 43816) growth was assessed by the MIC (Minimal Inhibitory Concentration) broth dilution method. Specifically compound dilutions were prepared from 10 mM DMSO stock solutions as follows: i) serial 2-fold dilution in 20 μL DMSO were prepared in a master plate (Greiner, Cat No: 651201), ii) 180 μL sterile distilled water was added to each aliquot and iii) 10 μL diluted compounds were transferred into a new assay plate (Costar, 3599).
(§2) Vials of each test microorganisms were maintained frozen in the vapor phase of a liquid nitrogen freezer. Single-use frozen vials of the two strains Escherichia coli ATCC 25922 (KWIKSTIK, 0335K) and Klebsiella pneumonia ATCC 43816, with predetermined CFU/mL, were taken out from the freezer, thawed at room temperature, and diluted in Cation-Adjusted Mueller Hinton Broth (CAMHB) to achieve a final inoculum of 5×10^5 CFU/mL. 90 μL bacteria containing broth was dispensed to the assay plate containing the pre-dispensed compound dilutions and mixed by pipetting 5 times.
(§3) Then the assay plates were incubated for 20 hours at 35° C. in ambient air. Following incubation, the MIC (μg/mL), the lowest concentration of drug that inhibits visible growth of the microorganism was read with the help of a magnification mirror and recorded.

Assay [2] has as its system Klebsiella pneumonia ATCC 43816. The assay is described as follows: Minimal Inhibitory Concentration (MIC) assay, Klebsiella pneumonia ATCC 43816. In kind it is cell-based. To be noted: Klebsiella pneumoniae, ATCC43816, 20 h, read-out: MIC Klebsiella pneumoniae ATCC43816. The method, then:
as §1, §2, §3

Converted amounts (≈) assume the structure as drawn.

A word on the MIC: it is the lowest concentration that inhibits growth of the organism. For `NC[C@H]1OC(=O)N2c3ccc(S(=O)(=O)N4CCN(c5cc(C(F)(F)[C@H]6CNCCO6)cc(Cl)n5)CC4)cc3OC[C@H]12` [Example 024, (3R,3aR)-3-(aminomethyl)-7-[4-[6-chloro-4-[difluoro-[(2R)-morpholin-2-yl]methyl]-2-pyridyl]piperazin-1-yl]sulfonyl-3a,4-dihydro-3H-oxazolo[4,3-c][1,4]benzoxazin-1-one], the MIC is 0.66 µg/mL (≈ 1.07 µM) in assay [1] and 1.32 µg/mL (≈ 2.15 µM) in assay [2].

On to `O=C1CCC2COc3cc(S(=O)(=O)N4CCN(c5cc(C(F)(F)[C@H]6CNCCO6)cc(Cl)n5)CC4)ccc3N12` (stereo partly drawn) [Example 030, 7-[4-[6-Chloro-4-[difluoro-[(2R)-morpholin-2-yl]methyl]-2-pyridyl]piperazin-1-yl]sulfonyl-2,3,3a,4-tetrahydropyrrolo[2,1-c][1,4]benzoxazin-1-one], for which the results for the minimal inhibitory concentration (MIC) in assay [1] and in assay [2] were 0.49 µg/mL (≈ 0.839 µM) and 0.492 µg/mL (≈ 0.842 µM), respectively.

Consider `NC1CC(=O)N2c3ccc(S(=O)(=O)N4CCN(c5cc(C(F)(F)[C@H]6CNCCO6)cc(Cl)n5)CC4)cc3OCC12` (stereo partly drawn) [Example 031, 3-Amino-7-[4-[6-chloro-4-[difluoro-[(2R)-morpholin-2-yl]methyl]-2-pyridyl]piperazin-1-yl]sulfonyl-2,3,3a,4-tetrahydropyrrolo[2,1-c][1,4]benzoxazin-1-one], for which the figures for the minimal inhibitory concentration (MIC) in assay [1] and in assay [2] were 0.25 µg/mL (≈ 0.417 µM) and 1.01 µg/mL (≈ 1.68 µM), respectively.

For `O=C1O[C@@H](CO)[C@H]2COc3cc(S(=O)(=O)N4CCN(c5cc(C(F)(F)C67CNCC6C7)cc(Cl)n5)CC4)ccc3N12` (stereo partly drawn) [Example 036, (3R,3aR)-7-[4-[4-[3-azabicyclo[3.1.0]hexan-1-yl(difluoro)methyl]-6-chloro-2-pyridyl]piperazin-1-yl]sulfonyl-3-(hydroxymethyl)-3a,4-dihydro-3H-oxazolo[4,3-c][1,4]benzoxazin-1-one], the MIC in assay [1] and in assay [2] was 0.14 µg/mL (≈ 0.229 µM) each time.

In the case of `CC1COC(C(F)(F)c2cc(Cl)nc(N3CCN(S(=O)(=O)c4ccc5c(c4)OC[C@H]4[C@H](CO)OC(=O)N54)CC3)c2)CN1` (stereo partly drawn) [Example 040, (3R,3aS)-7-[4-[6-chloro-4-[difluoro-(5-methylmorpholin-2-yl)methyl]-2-pyridyl]piperazin-1-yl]sulfonyl-3-(hydroxymethyl)-3a,4-dihydro-3H-oxazolo[4,3-c][1,4]benzoxazin-1-one], the MIC in assay [1] and in assay [2] was 0.29 µg/mL (≈ 0.46 µM) throughout.

In the case of `CC(N)C(=O)N1CC(C(F)(F)c2cc(Cl)nc(N3CCN(S(=O)(=O)c4ccc5c(c4)OC[C@@H]4[C@H](CO)OC(=O)N54)CC3)c2)C1` (stereo partly drawn) [Example 041, (3R,3aR)-7-[4-[4-[[1-(2-aminopropanoyl)azetidin-3-yl]-difluoro-methyl]-6-chloro-2-pyridyl]piperazin-1-yl]sulfonyl-3-(hydroxymethyl)-3a,4-dihydro-3H-oxazolo[4,3-c][1,4]benzoxazin-1-one], the minimum inhibitory concentration (MIC) in assay [1] and in assay [2] was 2.4 µg/mL (≈ 3.65 µM) in each case.

For `NC(=O)CN1CCC(C(F)(F)c2cc(Cl)nc(N3CCN(S(=O)(=O)c4ccc5c(c4)OC[C@@H]4[C@H](CO)OC(=O)N54)CC3)c2)CC1` [Example 056, 2-[4-[[2-[4-[[(3R,3aR)-3-(hydroxymethyl)-1-oxo-3a,4-dihydro-3H-oxazolo[4,3-c][1,4]benzoxazin-7-yl]sulfonyl]piperazin-1-yl]-6-chloro-4-pyridyl]-difluoro-methyl]-1-piperidyl]acetamide], the MIC came to 0.31 µg/mL (≈ 0.462 µM) in assay [1] and 0.23 µg/mL (≈ 0.343 µM) in assay [2].

Turning to `C[N@@+]1(CC(N)=O)CCC[C@H]1C(=O)N[C@H]1CC[C@H](C(F)(F)c2cc(Cl)nc(N3CCN(S(=O)(=O)c4ccc5c(c4)OC[C@@H]4[C@H](CO)OC(=O)N54)CC3)c2)CC1` [Example 058, (1S,2S)—N-[4-[[2-[4-[[(3R,3aR)-3-(hydroxymethyl)-1-oxo-3a,4-dihydro-3H-oxazolo[4,3-c][1,4]benzoxazin-7-yl]sulfonyl]piperazin-1-yl]-6-chloro-4-pyridyl]-difluoro-methyl]cyclohexyl]-1-(2-amino-2-oxo-ethyl)-1-methyl-pyrrolidin-1-ium-2-carboxamide;chloride], the MIC in assay [1] worked out at 1.3 µg/mL; in assay [2], 1.32 µg/mL.

These data come from patent US20260308172A1, “TRICYCLIC COMPOUNDS FOR TREATMENT OF BACTERIAL INFECTIONS” (priority 2023, published 2026).
